Measured values from PubChem BioAssay AID248 (DTP/NCI, 2004).
Toxic doses and inconclusive results are not listed. Rule as the data show it: active = T/C of 150% or more; inactive = T/C below 125%.

Test system: L1210 leukemia ip in BDF1 mice, survival T/C
Assay: NCI In Vivo Anticancer Drug Screen. Data for tumor model L1210 Leukemia (intraperitoneal) in B6D2F1 (BDF1) mice
Conditions: endpoint: mean survival time, higher = longer survival
Method in brief: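 Ratio derived from survival: compound-dosed mice over vehicle-dosed mice, all bearing a transplantable tumor.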

[1] = dose: 100.0 mg/kg/injection, schedule: Q01DX009 (ip), vehicle: saline with Tween-80
[2] = dose: 200.0 mg/kg/injection, schedule: Q01DX009 (ip), vehicle: saline with Tween-80
[3] = dose: 400.0 mg/kg/injection, schedule: Q01DX009 (ip), vehicle: saline with Tween-80
[4] = dose: 100.0 mg/kg/injection, schedule: Q01DX009 (ip), vehicle: Klucel (hydroxypropylcellulose) (HPC)
[5] = dose: 100.0 mg/kg/injection, schedule: Q04DX003 (ip), vehicle: Klucel (hydroxypropylcellulose) (HPC)
[6] = dose: 200.0 mg/kg/injection, schedule: Q01DX009 (ip), vehicle: Klucel (hydroxypropylcellulose) (HPC)
[7] = dose: 200.0 mg/kg/injection, schedule: Q04DX003 (ip), vehicle: Klucel (hydroxypropylcellulose) (HPC)
[8] = dose: 400.0 mg/kg/injection, schedule: Q04DX003 (ip), vehicle: Klucel (hydroxypropylcellulose) (HPC)
[9] = dose: 100.0 mg/kg/injection, schedule: Q01DX001 (ip), vehicle: saline with Tween-80
[10] = dose: 200.0 mg/kg/injection, schedule: Q01DX001 (ip), vehicle: saline with Tween-80
[11] = dose: 100.0 mg/kg/injection, schedule: Q01DX001 (ip), vehicle: saline
[12] = dose: 200.0 mg/kg/injection, schedule: Q01DX001 (ip), vehicle: saline
[13] = dose: 400.0 mg/kg/injection, schedule: Q01DX001 (ip), vehicle: saline
[14] = dose: 100.0 mg/kg/injection, schedule: Q04DX002 (ip), vehicle: saline
[15] = dose: 200.0 mg/kg/injection, schedule: Q04DX002 (ip), vehicle: saline
[16] = dose: 400.0 mg/kg/injection, schedule: Q01DX009 (ip), vehicle: Klucel (hydroxypropylcellulose) (HPC)
[17] = dose: 100.0 mg/kg/injection, schedule: Q04DX003 (ip), vehicle: saline
[18] = dose: 200.0 mg/kg/injection, schedule: Q04DX003 (ip), vehicle: saline

Measured: T/C

Cl/C(=N\Nc1ccccc1)c1ccccc1
inactive: dose: 3.52 mg/kg/injection, schedule: Q01DX009 (ip), vehicle: saline sonified 100 % of control | dose: 5.28 mg/kg/injection, schedule: Q01DX009 (ip), vehicle: saline sonified 105 % of control | dose: 7.5 mg/kg/injection, schedule: Q01DX001 (ip), vehicle: Klucel (hydroxypropylcellulose) (HPC) 98 % of control | dose: 8.0 mg/kg/injection, schedule: Q01DX009 (ip), vehicle: saline sonified 100 % of control | dose: 12.0 mg/kg/injection, schedule: Q01DX009 (ip), vehicle: saline sonified 108 % of control | dose: 15.0 mg/kg/injection, schedule: Q01DX001 (ip), vehicle: Klucel (hydroxypropylcellulose) (HPC) 105 % of control | dose: 15.0 mg/kg/injection, schedule: Q01DX009 (ip), vehicle: saline sonified 111 % of control | dose: 30.0 mg/kg/injection, schedule: Q01DX001 (ip), vehicle: Klucel (hydroxypropylcellulose) (HPC) 105 % of control | dose: 30.0 mg/kg/injection, schedule: Q01DX009 (ip), vehicle: saline sonified 118 % of control

COC(=O)/C(C#N)=C/c1c[nH]c2ccccc12
inactive: [1] 101 % of control | dose: 100.0 mg/kg/injection, schedule: Q04DX003 (ip), vehicle: saline with Tween-80 101 % of control | [2] 95 % of control | dose: 200.0 mg/kg/injection, schedule: Q04DX003 (ip), vehicle: saline with Tween-80 93 % of control | [3] 100 % of control | dose: 400.0 mg/kg/injection, schedule: Q04DX003 (ip), vehicle: saline with Tween-80 98 % of control

O=C1/C(=C\c2ccccn2)c2ccccc2N1Cl
inactive: dose: 100.0 mg/kg/injection, schedule: Q01DX001 (ip), vehicle: other 94 % of control | dose: 200.0 mg/kg/injection, schedule: Q01DX001 (ip), vehicle: other 92 % of control | dose: 400.0 mg/kg/injection, schedule: Q01DX001 (ip), vehicle: other 94 % of control

c1ccc2c3c([nH]c2c1)CCCC3
inactive: [4] 97 % of control | [5] 107 % of control | [6] 113 % of control | [7] 105 % of control | [8] 102 % of control

CC[N+]1(C)CC2C3CCC(C)(O3)C2C1 (centres undefined)
inactive: dose: 44.0 mg/kg/injection, schedule: Q01DX Z (ip), vehicle: methylcellulose (MC) 104 % of control | dose: 66.0 mg/kg/injection, schedule: Q01DX Z (ip), vehicle: methylcellulose (MC) 98 % of control | dose: 100.0 mg/kg/injection, schedule: Q01DX Z (ip), vehicle: methylcellulose (MC) 104 % of control

CC(=O)C(C)(C)Cl
inactive: [1] 94 % of control | [2] 95 % of control | [3] 101 % of control

CCOc1ccccc1NC(=O)Nc1cccc(F)c1
inactive: [1] 104 % of control | [2] 96 % of control | [3] 93 % of control

Cc1nnc(N(C)C)nc1C
inactive: [9] 98 % of control | [10] 97 % of control | dose: 400.0 mg/kg/injection, schedule: Q01DX001 (ip), vehicle: saline with Tween-80 108 % of control

CC(C)(C)C1CCC(N=C(N)CSS(=O)(=O)O)CC1 (centres undefined)
inactive: dose: 12.5 mg/kg/injection, schedule: Q04DX002 (ip), vehicle: Klucel (hydroxypropylcellulose) (HPC) 97 % of control | dose: 25.0 mg/kg/injection, schedule: Q04DX002 (ip), vehicle: Klucel (hydroxypropylcellulose) (HPC) 95 % of control

CN(C(=O)Cc1ccccc1)c1ccccc1[N+](=O)[O-]
inactive: dose: 50.0 mg/kg/injection, schedule: Q01DX001 (ip), vehicle: saline 98 % of control | [11] 104 % of control | [12] 95 % of control | [13] 101 % of control

COc1ccc(C(=O)c2ccccc2)cc1
inactive: dose: 100.0 mg/kg/injection, schedule: Q04DX002 (ip), vehicle: Klucel (hydroxypropylcellulose) (HPC) 115 % of control | dose: 200.0 mg/kg/injection, schedule: Q04DX002 (ip), vehicle: Klucel (hydroxypropylcellulose) (HPC) 86 % of control | dose: 400.0 mg/kg/injection, schedule: Q04DX002 (ip), vehicle: Klucel (hydroxypropylcellulose) (HPC) 86 % of control

CCCCC(=O)N1C(C)CCC1C (centres undefined)
inactive: [14] 105 % of control | [15] 88 % of control

Brc1ccc(SCN(CSc2ccc(Br)cc2)Cc2ccccc2)cc1
inactive: [11] 93 % of control | [12] 87 % of control | [13] 93 % of control

NC(=O)c1ccccc1OC(=O)Nc1ccc(F)c([N+](=O)[O-])c1
inactive: [4] 97 % of control | [6] 104 % of control | [16] 101 % of control

C=C(Br)CNS(C)(=O)=O
inactive: dose: 6.25 mg/kg/injection, schedule: Q01DX009 (ip), vehicle: saline 106 % of control | dose: 12.5 mg/kg/injection, schedule: Q01DX009 (ip), vehicle: saline 95 % of control | dose: 12.5 mg/kg/injection, schedule: Q04DX003 (ip), vehicle: saline 98 % of control | dose: 25.0 mg/kg/injection, schedule: Q01DX009 (ip), vehicle: saline 96 % of control | dose: 25.0 mg/kg/injection, schedule: Q04DX003 (ip), vehicle: saline 104 % of control

Nc1nc(N)c(-c2ccc(Cl)cc2)c(C(F)(F)F)n1
inactive: dose: 75.0 mg/kg/injection, schedule: Q01DX001 (ip), vehicle: saline with Tween-80 95 % of control | dose: 150.0 mg/kg/injection, schedule: Q01DX001 (ip), vehicle: saline with Tween-80 100 % of control | dose: 300.0 mg/kg/injection, schedule: Q01DX001 (ip), vehicle: saline with Tween-80 92 % of control

Clc1sc2ccccc2c1Cl
inactive: dose: 50.0 mg/kg/injection, schedule: Q01DX009 (ip), vehicle: Klucel (hydroxypropylcellulose) (HPC) 103 % of control | [4] 95 % of control

COC(=O)CCN1C(=O)c2ccccc2C1=O
inactive: [9] 110 % of control | [10] 102 % of control

Cc1cc(=O)[nH]c(NCC(=O)O)n1
inactive: dose: 50.0 mg/kg/injection, schedule: Q04DX002 (ip), vehicle: saline 101 % of control | [14] 101 % of control | [15] 101 % of control

OC1CCC(O)C2CCCCC12 (centres undefined)
inactive: [11] 101 % of control | [5] 112 % of control | [12] 95 % of control | [7] 91 % of control | [13] 95 % of control | [8] 104 % of control

ClP1(c2ccccc2)=NP(Cl)(c2ccccc2)=NP(Cl)(c2ccccc2)=NP(Cl)(c2ccccc2)=N1 (centres undefined)
inactive: dose: 50.0 mg/kg/injection, schedule: Q01DX009 (ip), vehicle: saline with Tween-80 97 % of control | [1] 89 % of control

CC(=O)/C=C/c1ccc(O)cc1
inactive: [4] 98 % of control | [6] 96 % of control | [16] 100 % of control

O=C(Nc1cccc(Cl)c1)C(Br)C(Br)c1ccccc1 (centres undefined)
inactive: [4] 102 % of control | [6] 103 % of control | [16] 100 % of control

CN(C)CC1CCCCN1 (centres undefined)
inactive: [17] 93 % of control | [18] 97 % of control

COc1cc(C(=O)OC2=CC(=O)c3nc(OC(=O)c4cc(OC)c(OC)c(OC)c4)ccc3C2=O)cc(OC)c1OC
inactive: [11] 93 % of control | [12] 91 % of control | [13] 95 % of control

c1ccc(CNC(Cc2ccccc2)c2ccc(OCc3ccccc3)cc2)cc1 (centres undefined)
inactive: [4] 93 % of control | [6] 89 % of control | [16] 89 % of control

CC(=O)N/N=C(/C)C(=O)O
inactive: dose: 50.0 mg/kg/injection, schedule: Q01DX009 (ip), vehicle: water 100 % of control | dose: 100.0 mg/kg/injection, schedule: Q01DX009 (ip), vehicle: water 100 % of control | dose: 100.0 mg/kg/injection, schedule: Q04DX003 (ip), vehicle: water 97 % of control | dose: 200.0 mg/kg/injection, schedule: Q04DX003 (ip), vehicle: water 106 % of control

CC(=O)Oc1ccc(OC(C)=O)c2c1CC(C)=C(C)C2
inactive: dose: 100.0 mg/kg/injection, schedule: Q01DX009 (ip), vehicle: saline 95 % of control | [17] 97 % of control | dose: 200.0 mg/kg/injection, schedule: Q01DX009 (ip), vehicle: saline 90 % of control | [18] 98 % of control | dose: 400.0 mg/kg/injection, schedule: Q01DX009 (ip), vehicle: saline 92 % of control | dose: 400.0 mg/kg/injection, schedule: Q04DX003 (ip), vehicle: saline 97 % of control
